Source: the CheMixHub viscosity set
Values joined by “and” are separate entries in the source; they are usually repeats but may differ in a detail not shown here. Equal entries are not always repeated.

Test: xn = mol fraction of the nth substance listed

[Br-].[Li+] + O
viscosity
Settings	293.15 K	298.15 K	303.15 K	308.15 K	313.15 K	318.15 K	323.15 K
100 kPa, x1 = 0.018	–	1.019 mPa·s	0.916 mPa·s	0.832 mPa·s	0.764 mPa·s	0.705 mPa·s	0.656 mPa·s
100 kPa, x1 = 0.035	–	1.161 mPa·s	1.052 mPa·s	0.966 mPa·s	0.888 mPa·s	0.822 mPa·s	0.763 mPa·s
100 kPa, x1 = 0.058	–	1.307 mPa·s	1.185 mPa·s	1.084 mPa·s	0.998 mPa·s	0.922 mPa·s	0.857 mPa·s
100 kPa, x1 = 0.092	–	1.601 mPa·s	1.452 mPa·s	1.327 mPa·s	1.219 mPa·s	1.126 mPa·s	1.045 mPa·s
100 kPa, x1 = 0.129	–	2.164 mPa·s	1.972 mPa·s	1.806 mPa·s	1.662 mPa·s	1.536 mPa·s	1.427 mPa·s
100 kPa, x1 = 0.17	–	3.258 mPa·s	2.945 mPa·s	2.683 mPa·s	2.459 mPa·s	2.263 mPa·s	2.093 mPa·s
100 kPa, x1 = 0.206	–	5.202 mPa·s	4.669 mPa·s	4.221 mPa·s	3.841 mPa·s	3.512 mPa·s	3.225 mPa·s
100 kPa, x1 = 0.246	–	9.066 mPa·s	8.028 mPa·s	7.154 mPa·s	6.41 mPa·s	5.769 mPa·s	5.198 mPa·s
101 kPa, x1 = 0.0109	1.079 mPa·s	–	0.855 mPa·s	–	–	–	0.593 mPa·s
101 kPa, x1 = 0.0353	1.245 mPa·s	–	0.999 mPa·s	–	–	–	0.694 mPa·s
101 kPa, x1 = 0.0649	1.472 mPa·s	–	1.195 mPa·s	–	–	–	0.842 mPa·s
101 kPa, x1 = 0.1	1.8 mPa·s	1.6 mPa·s	1.44 mPa·s	–	1.18 mPa·s	–	–
101 kPa, x1 = 0.101	1.854 mPa·s	–	1.523 mPa·s	–	–	–	1.093 mPa·s
101 kPa, x1 = 0.12	2.11 mPa·s	1.86 mPa·s	1.66 mPa·s	–	1.38 mPa·s	–	–
101 kPa, x1 = 0.131	2.377 mPa·s	–	1.947 mPa·s	–	–	–	1.408 mPa·s
101 kPa, x1 = 0.14	2.35 mPa·s	2.08 mPa·s	1.89 mPa·s	–	1.57 mPa·s	–	–
101 kPa, x1 = 0.15	2.6 mPa·s	2.34 mPa·s	2.09 mPa·s	–	1.72 mPa·s	–	–
101 kPa, x1 = 0.16	3.12 mPa·s	2.79 mPa·s	2.48 mPa·s	–	–	–	–
101 kPa, x1 = 0.1711	3.648 mPa·s	–	2.957 mPa·s	–	–	–	2.093 mPa·s
101 kPa, x1 = 0.19	4.21 mPa·s	3.73 mPa·s	3.34 mPa·s	–	–	–	–
101 kPa, x1 = 0.2	3.54 mPa·s and 5.05 mPa·s	3.1 mPa·s and 4.45 mPa·s	2.77 mPa·s and 3.95 mPa·s	–	–	–	–
101 kPa, x1 = 0.22	–	5.61 mPa·s	5 mPa·s	–	–	–	–
101 kPa, x1 = 0.24	–	7.22 mPa·s	6.36 mPa·s	–	–	–	–
101 kPa, x1 = 0.25	–	9.43 mPa·s	8.1 mPa·s	–	–	–	–
